Laboratory results published in patent publication US20210395309A1, “PEPTIDE-DRUG CONJUGATES” (Hong Kong Baptist University, priority 2020, published 2021).
“Also recorded” adds a separate entry of the source. Where two headings read alike, the source gives them in different places. Where a SMILES comes first, the peptide text is derived from it. The star is where a group is joined. Paclitaxel(2'-O-succinyl) = CC(=O)O[C@H]1C(=O)[C@@]2(C)[C@H]([C@H](OC(=O)c3ccccc3)[C@]3(O)C[C@H](OC(=O)[C@H](OC(=O)CCC(=O)*)[C@@H](NC(=O)c4ccccc4)c4ccccc4)C(C)=C1C3(C)C)[C@]1(OC(C)=O)CO[C@@H]1C[C@@H]2O

Tests used:
[1] = test system: MDA-MB-231 (ACE-positive) cells; test: MTT cytotoxicity assay in ACE-positive TNBC MDA-MB-231; assay type: cell-based, human; conditions: 48 h, mean (95% CI)
Experimental: (§1) MTT assays were performed to study the in vitro antitumor effects of BPP-PTX conjugate as well as free PTX and BPP in various ACE-negative and ACE-positive cell lines. Briefly, the cells (5,000 per well) were seeded in 96-well plates 24 h before treatment. The different drug formulations at concentrations of 0.01-1000 nM PTX or 0.01-1000 nM BPP-PTX and free BPP were added. The cells were cultured for another 48 h. 20 μL of 3-(4,5-dimethylthiazol-2-yl)-2,5-diphenyltetrazolium bromide (MTT) solution (5 mg/mL) was added. The cells were further cultured for 4 h, the medium was removed, and 150 μL DMSO was added to dissolve the MTT-formazan crystals. The optical density (O.D.) values for the untreated group were set as 100% viability. Independent experiments were performed in triplicate.
(§2) Each experiment was performed at least three times. GraphPad Prism 6.0 software was used for IC50 calculations and statistical analyses, including student t-test and two-way ANOVA.

[2] = test system: MDA-MB-468 (ACE-positive) cells; test: MTT cytotoxicity assay in ACE-positive TNBC MDA-MB-468; assay type: cell-based, human; conditions: 48 h, mean (95% CI)
Experimental: as §1, §2

[3] = test system: HEK293T (ACE-negative) cells; test: MTT cytotoxicity assay in ACE-negative HEK293T; assay type: cell-based, human; conditions: 48 h, mean (95% CI)
Experimental: as §1, §2

[4] = for body weight decrease compared with control mice: day 28
Experimental: Mice were kept at room temperature 25° C. with an alternating 12 h light-dark cycle and were allowed access to food and water. […] MDA-MB-468 cells (5×10^6 cells per mouse) were suspended in PBS and inoculated subcutaneously into the fourth mammary fat pad of athymic nude mice. Tumor growth was monitored every four days by measuring two perpendicular diameters with calipers. […] The tumors were measured with calipers every day, and tumor volumes were calculated using the following formula: a^2×b×0.4, where “a” is the smallest diameter and “b” is the diameter perpendicular to “a”. At the end of the experiment, the mice were sacrificed, and the tumor weights of each animal were analyzed. Blood samples (˜100 μL) were taken from the retro-orbital plexus in heparinized capillary tubes (Modulohm A/S, Herlev, Denmark). Total white blood cell counts were determined manually for each sample using a Neubauer chamber (GMBH, Wertheim, Germany).

HEK293T-ACE cells = test: Cytotoxicity in ACE-overexpressed HEK293T-ACE versus control HEK293T; assay type: cell-based, human; conditions: 1-, 10-, and 100 nM; ACE plasmid vs empty plasmid
Experimental: (§3) ACE siRNA (h2) (sc-270350) and Control siRNA-A (sc-37007) were purchased from Santa Cruz Biotechnology, Inc. The ACE expression plasmid was bought from Gen Script (Nanjing) Co., Ltd. Transfections were carried out using Lipofectamine 2000 (Invitrogen) according to the manufacturer's instructions.
as §1
(§4) Next, it was determined whether the cytotoxicity of BPP-PTX was mediated by ACE or not. First, the ACE protein was artificially overexpressed in HEK293T cell lines by transfecting ACE-containing plasmid, and the empty plasmid was transfected as a control. […]

MDA-MB-468 cells [5] = test: Annexin V-FITC/PI apoptosis assay, flow cytometry; assay type: cell-based, human; conditions: 10 nM, 48 h
Experimental: (§5) 1×10^5 MDA-MB-231 or 1.5×10^5 MDA-MB-468 cells per well were cultured in 6-well plates. After attachment, cells were treated with DMSO or 10 nM PTX or BPP-PTX for 48 h and stained with Annexin V (AV) conjugated with FITC and propidium iodide (PI) using the Annexin V-FITC Apoptosis Assay Kit following the manufacturer's instructions. Stained cells were analyzed with the Cyflow Cube flow cytometer (PARTEC, Germany). Data were analyzed using FlowJo 7.6.5 software.

MDA-MB-231 cells = test: Annexin V-FITC/PI apoptosis assay, flow cytometry; assay type: cell-based, human; conditions: 10 nM, 48 h
Experimental: as §5

MDA-MB-468-siACE cells = test: Cytotoxicity in ACE-knockdown MDA-MB-468-siACE versus MDA-MB-468-siCtr; assay type: cell-based, human; conditions: 10- and 100 nM
Experimental: as §3, §1, §4

MDA-MB-468 cells [6] = test: TNBC orthotopic mouse model, tumor growth; assay type: in vivo
Experimental: To test the in vivo efficacy and toxicity of BPP-PTX, an orthotopic mouse model was established. ACE-positive MDA-MB-468 cells were injected orthotopically in the mammary fat pads of the female athymic nude mouse. Once mice attained palpable tumors, they were randomly divided into four groups and treated for 28 days with PBS, free PTX (2.4 μmol/kg), low dose BPP-PTX (2.4 μmol/kg), and high-dose BPP-PTX (9.6 μmol/kg), every 4 days by intraperitoneal injection (i.p.). Tumor growth was monitored by measuring tumor volume every 4 days with a caliper rule. On day 4, after the first injection, the effect of the drugs was not yet detectable since average tumor volumes, as measured with the caliper, were similar in the four groups of mice. […] On day 28, the average tumor volume of mice treated with low-dose BPP-PTX had decreased by about 15% compared to animals treated with free PTX, and by 54% compared to control animals (PBS). Meanwhile, the average tumor volume of mice treated with high-dose BPP-PTX, had decreased by about 30% compared to animals treated with free PTX, and by 62% compared to control animals (FIGS. 5A and 5B). Consistently, the average tumor weight of mice treated with low-dose BPP-PTX was 0.20 g (0.17, 0.24) lower than that of mice treated with free PTX (0.26 g (0.21, 0.31)) and control mice (0.43 g (0.37, 0.49)).

[7] = test system: MDA-MB-231 and MDA-MB-468 cells; test: DAPI staining of nuclei for apoptosis; assay type: cell-based, human; conditions: 10 nM
Experimental: The occurrence of apoptosis was evaluated by DAPI staining. Cells (4.0×10^5 cells/well) were seeded and incubated with 10 nM PTX or BPP-PTX for 24 h. Following treatment, the cells were washed with phosphate-buffered saline (PBS) and fixed with 4% paraformaldehyde (Sigma-Aldrich) for 15 min at room temperature 25° C., and then stained in the dark with a DAPI solution for 10 min at room temperature 25° C. Thereafter, the cells were washed with PBS and photographed under an inverted fluorescence microscope (Olympus IX71; Olympus, Tokyo, Japan).

MDA-MB-231-siACE cells = test: Cytotoxicity in ACE-knockdown MDA-MB-231-siACE versus MDA-MB-231-siCtr; assay type: cell-based, human; conditions: 10- and 100 nM
Experimental: as §3, §1, §4

| SMILES | IC50 [1] | IC50 [2] | IC50 [3] | WBC count decrease after the 28-day treatment compared to before treatment ([4]; 2.4 μmol/kg i.p. every 4 days) | WBC count decrease after the 28-day treatment compared to before treatment ([4]; 9.6 μmol/kg i.p. every 4 days) | body weight loss compared with control mice ([4]; day 0 to day 24, low dose 2.4 μmol/kg) | body weight decrease compared with control mice ([4]; 2.4 μmol/kg i.p. every 4 days) | body weight decrease compared with control mice ([4]; 9.6 μmol/kg i.p. every 4 days) | IC50 ([1]; Homo sapiens) | IC50 ([2]; Homo sapiens) | cell variability in HEK293T-ACE compared with HEK293T (HEK293T-ACE cells) | apoptosis (MDA-MB-468 cells [5]) | apoptosis (MDA-MB-231 cells) | cell variability in siACE cells compared with siCtr cells (MDA-MB-468-siACE cells) | IC50 ([3]; Homo sapiens, HEK-293T) | average tumor weight (MDA-MB-468 cells [6]; end of 28-day treatment, 2.4 μmol/kg i.p. every 4 days) | tumor growth compared with control mice (MDA-MB-468 cells [6]; i.p. every 4 days, 28 days, PTX 2.4 μmol/kg, BPP-PTX 2.4 and 9.6 μmol/kg) | nuclei morphology (DAPI) [7] | cell variability in siACE cells compared with siCtr cells (MDA-MB-231-siACE cells) |
| --- | --- | --- | --- | --- | --- | --- | --- | --- | --- | --- | --- | --- | --- | --- | --- | --- | --- | --- | --- |
| CC[C@H](C)[C@H](NC(=O)[C@H](CCC(N)=O)NC(=O)[C@@H]1CCCN1C(=O)[C@H](CCCNC(=N)N)NC(=O)[C@@H]1CCCN1C(=O)[C@H](Cc1c[nH]c2ccccc12)NC(=O)[C@H](CCC(=O)O)NC(=O)CCC(=O)O[C@@H](C(=O)O[C@H]1C[C@@]2(O)[C@@H](OC(=O)c3ccccc3)[C@@H]3[C@]4(OC(C)=O)CO[C@@H]4C[C@H](O)[C@@]3(C)C(=O)[C@H](OC(C)=O)C(=C1C)C2(C)C)[C@@H](NC(=O)c1ccccc1)c1ccccc1)C(=O)N1CCC[C@H]1C(=O)N1CCC[C@H]1C(N)=O [BPP-PTX] ({Paclitaxel(2'-O-succinyl)}-EWPRPQIPP-NH2) | 9.5 nM | 12.3 nM | 616 nM | about 17% | ~22% | no body weight loss | ~2.8% | ~6.4% | – | – | – | – | – | – | – | – | – | – | – |
| CC(=O)O[C@H]1C(=O)[C@@]2(C)[C@H]([C@H](OC(=O)c3ccccc3)[C@]3(O)C[C@H](OC(=O)[C@H](O)[C@@H](NC(=O)c4ccccc4)c4ccccc4)C(C)=C1C3(C)C)[C@]1(OC(C)=O)CO[C@@H]1C[C@@H]2O [PTX, Paclitaxel] | – | – | – | about 52% | – | – | about 6.2% | – | 3.1 nM | 3 nM | No differences | induced apoptosis | induced apoptosis | no difference | 6.7 nM | 0.26 g | significantly lower; also recorded: clear reduction | condensed and fragmented | no difference |
